# Reference: patent publication US20160060260A1, “BROMODOMAIN INHIBITORS FOR TREATING DISEASE” (Board of Regents, The University of Texas System, priority 2014, published 2016)
# Target: T1, Recombinant human His-tagged Trim24-PHD-bromodomain (Homo sapiens, UniProt O15164)
# T1 construct: Recombinant human His-tagged Trim24-PHD-bromodomain (produced in-house); made in house
# T1 sequence (O15164 824-1006 limits assumed): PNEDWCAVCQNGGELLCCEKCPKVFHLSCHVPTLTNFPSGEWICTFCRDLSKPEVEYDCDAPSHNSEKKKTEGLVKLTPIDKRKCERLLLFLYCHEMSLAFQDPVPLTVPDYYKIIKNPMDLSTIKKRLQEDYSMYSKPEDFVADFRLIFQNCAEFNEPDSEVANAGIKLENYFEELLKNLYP
# Assay: Trim24 AlphaScreen Assay
# Assay type: binding
# Details: 5 nM Trim24 protein, 15 nM biotinylated H3K23ac (1-33aa) peptide
# Procedure, shortened: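 AlphaScreen read-out after 2 h with streptavidin donor and Ni-chelate acceptor beads at 10 ug/mL each, following 1 h room-temperature incubation of compound, His-tagged PHD-bromodomain protein and biotin-H3K23ac (1-33aa) peptide in Hepes pH 7.5 buffer with NaCl and Triton X-100. Signals normalised between no-compound and no-protein wells; IC50 from four-parameter logistic curves.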
row,SMILES,IC50
1,"Cn1cnc(S(=O)(=O)Nc2cc3c(cc2Oc2cccc(OCc4ccccn4)c2)n(C)c(=O)n3C)c1 [Example 28, N-(1,3-dimethyl-2-oxo-6-(3-(pyridin-2-ylmethoxy)phenoxy)-2,3-dihydro-1H-benzo[d]imidazol-5-yl)-1-methyl-1H-imidazole-4-sulfonamide]",100 to 1000 nM
2,"Cn1c(=O)n(C)c2cc(Oc3cccc(OCC(F)(F)F)c3)c(NS(=O)(=O)C3CCOC3)cc21 (stereo not shown) [Example 95, N-(1,3-dimethyl-2-oxo-6-(3-(2,2,2-trifluoroethoxy)phenoxy)-2,3-dihydro-1H-benzo[d]imidazol-5-yl)tetrahydrofuran-3-sulfonamide]",100 to 1000 nM
3,"Cn1cnc(S(=O)(=O)Nc2cc3c(cc2Oc2cccc(OCC4CCOCC4)c2)n(C)c(=O)n3C)c1 [Example 65, N-(1,3-dimethyl-2-oxo-6-(3-((tetrahydro-2H-pyran-4-yl)methoxy)phenoxy)-2,3-dihydro-1H-benzo[d]imidazol-5-yl)-1-methyl-1H-imidazole-4-sulfonamide]",100 to 1000 nM
4,"COc1ccc(S(=O)(=O)Nc2cc3c(cc2Oc2cc(OCCCCN(C)C)cc(OCC(F)(F)F)c2)n(C)c(=O)n3C)cc1OC [Example 211, N-(6-(3-(4-(dimethylamino)butoxy)-5-(2,2,2-trifluoroethoxy)phenoxy)-1,3-dimethyl-2-oxo-2,3-dihydro-1H-benzo[d]imidazol-5-yl)-3,4-dimethoxybenzenesulfonamide]",1 to 10 nM
5,"COc1cc(OC)cc(S(=O)(=O)Nc2cc3c(cc2Oc2cccc(OCc4ccccc4)c2)n(C)c(=O)n3C)c1 [Example 44, N-(6-(3-(benzyloxy)phenoxy)-1,3-dimethyl-2-oxo-2,3-dihydro-1H-benzo[d]imidazol-5-yl)-3,5-dimethoxybenzenesulfonamide]",100 to 1000 nM
6,"CC(C)c1cccc(S(=O)(=O)Nc2cc3c(cc2Oc2cccc(OCc4ccccc4)c2)n(C)c(=O)n3C)c1 [Example 32, N-(6-(3-(benzyloxy)phenoxy)-1,3-dimethyl-2-oxo-2,3-dihydro-1H-benzo[d]imidazol-5-yl)-3-isopropylbenzenesulfonamide]",> 1000 nM
7,"Cc1nc(S(=O)(=O)Nc2cc3c(cc2Oc2cccc(OCc4ccccc4)c2)n(C)c(=O)n3C)cn1C [Example 26, N-(6-(3-(benzyloxy)phenoxy)-1,3-dimethyl-2-oxo-2,3-dihydro-1H-benzo[d]imidazol-5-yl)-1,2-dimethyl-1H-imidazole-4-sulfonamide]",100 to 1000 nM
8,"C=CCOc1cccc(Oc2cc3c(cc2NS(=O)(=O)c2cn(C)cn2)n(C)c(=O)n3C)c1 [Example 74, N-(6-(3-(allyloxy)phenoxy)-1,3-dimethyl-2-oxo-2,3-dihydro-1H-benzo[d]imidazol-5-yl)-1-methyl-1H-imidazole-4-sulfonamide]",100 to 1000 nM
9,"CCC(C)COc1cccc(Oc2cc3c(cc2NS(=O)(=O)c2cn(C)c(C)n2)n(C)c(=O)n3C)c1 (stereo not shown) [Example 62, N-(1,3-dimethyl-6-(3-(2-methylbutoxy)phenoxy)-2-oxo-2,3-dihydro-1H-benzo[d]imidazol-5-yl)-1,2-dimethyl-1H-imidazole-4-sulfonamide]",100 to 1000 nM
10,"CCn1cc(S(=O)(=O)Nc2cc3c(cc2Oc2cccc(OCc4ccccc4)c2)n(C)c(=O)n3C)cn1 [Example 77, N-(6-(3-(benzyloxy)phenoxy)-1,3-dimethyl-2-oxo-2,3-dihydro-1H-benzo[d]imidazol-5-yl)-1-ethyl-1H-pyrazole-4-sulfonamide]",100 to 1000 nM
11,"CC(C)COc1cc(Cl)cc(Oc2cc3c(cc2NS(=O)(=O)c2cn(C)cn2)n(C)c(=O)n3C)c1 [Example 223, N-(6-(3-chloro-5-isobutoxyphenoxy)-1,3-dimethyl-2-oxo-2,3-dihydro-1H-benzo[d]imidazol-5-yl)-1-methyl-1H-imidazole-4-sulfonamide]",10 to 100 nM
12,"COc1cccc(S(=O)(=O)Nc2cc3c(cc2Oc2cccc(OCc4ccccc4)c2)n(C)c(=O)n3C)c1 [Example 18, N-(6-(3-(benzyloxy)phenoxy)-1,3-dimethyl-2-oxo-2,3-ddihydro-1H-benzo[d]imidazol-5-yl)-3-methoxybenzenesulfonamide]",100 to 1000 nM
13,"Cn1cnc(S(=O)(=O)Nc2cc3c(cc2Oc2cccc(OCC4CCOC4)c2)n(C)c(=O)n3C)c1 (stereo not shown) [Example 64, N-(1,3-dimethyl-2-oxo-6-(3-((tetrahydrofuran-3-yl)methoxy)phenoxy)-2,3-dihydro-1H-benzo[d]imidazol-5-yl)-1-methyl-1H-imidazole-4-sulfonamide]",100 to 1000 nM
14,"COc1ccc(S(=O)(=O)Nc2cc3c(cc2Oc2cc(OCCCCN)cc(OCC(F)(F)F)c2)n(C)c(=O)n3C)cc1OC [Example 210, N-(6-(3-(4-aminobutoxy)-5-(2,2,2-trifluoroerthoxy)phenoxy)-1,3-dimethyl-2-oxo-2,3-dihydro-1H-benzo[d]imidazol-5-yl)-3,4-dimethoxybenzenesulfonamide]",10 to 100 nM

# More lines, now with the values ahead:
row,IC50,SMILES
1,> 1000 nM,"Cc1nc(S(=O)(=O)Nc2cc3c(cc2Oc2ccc(F)c(OCC4CC4)c2)n(C)c(=O)n3C)cn1C [Example 130, N-(6-(3-(cyclopropylmethoxy)-4-fluorophenoxy)-1,3-dimethyl-2-oxo-2,3-dihydro-1H-benzo[d]imidazol-5-yl)-1,2-dimethyl-1H-imidazole-4-sulfonamide]"
2,10 to 100 nM,"COc1ccc(S(=O)(=O)Nc2cc3c(cc2Oc2cccc(OCCCCCCN)c2)n(C)c(=O)n3C)cc1OC [Example 145, N-(6-(3-((6-aminohexyl)oxy)phenoxy)-1,3-dimethyl-2-oxo-2,3-dihydro-1H-benzo[d]imidazol-5-yl)-3,4-dimethoxybenzenesulfonamide]"
3,100 to 1000 nM,"Cc1nc(S(=O)(=O)Nc2cc3c(cc2Oc2cccc(OCC4CCNCC4)c2)n(C)c(=O)n3C)cn1C [Example 229, N-(1,3-dimethyl-2-oxo-6-(3-(piperidin-4-ylmethoxy)phenoxy)-2,3-dihydro-1H-benzo[d]imidazol-5-yl)-1,2-dimethyl-1H-imidazole-4-sulfonamide]"
4,1 to 10 nM,"Cc1c(S(=O)(=O)Nc2cc3c(cc2Oc2cc(OCCCCCCN(C)C)cc(OCC(F)(F)F)c2)n(C)c(=O)n3C)cnn1C [Example 215, N-(6-(3-((6-(dimethylamino)hexyl)oxy)-5-(2,2,2-trifluoroethoxy)phenoxy)-1,3-dimethyl-2-oxo-2-3,-dihydro-1H-benzo[d]imidazol-5-yl)-1,5-dimethyl-1H-pyrazole-4-sulfonamide]"
5,10 to 100 nM,"CCCOc1cc(OCCCOC)cc(Oc2cc3c(cc2NS(=O)(=O)c2cn(C)nc2C)n(C)c(=O)n3C)c1 [Example 206, N-(6-(3-(3-methoxypropoxy)-5-propoxyphenoxy)-1,3-dimethyl-2-oxo-2,3-dihydro-1H-benzo[d]imidazol-5-yl)-1,3-dimethyl-1H-pyrazole-4-sulfonamide]"
6,10 to 100 nM,"COCCCOc1cc(OCC(F)(F)F)cc(Oc2cc3c(cc2NS(=O)(=O)c2cn(C)c(C)n2)n(C)c(=O)n3C)c1 [Example 141, N-(6-(3-(3-methoxypropoxy)-5-(2,2,2-trifluoroethoxy)phenoxy)-1,3-dimethyl-2-oxo-2,3-dihydro-1H-benzo[d]imidazol-5-yl)-1,2-dimethyl-1H-imidazole-4-sulfonamide]"
7,10 to 100 nM,CCCOc1cc(OCCCCN)cc(Oc2cc3c(cc2NS(=O)(=O)c2cn(C)c(C)n2)n(C)c(=O)n3C)c1 [Example 214]
8,1 to 10 nM,"Cn1cnc(S(=O)(=O)Nc2cc3c(cc2Oc2cc(OCCCCCCN)cc(OCC(F)(F)F)c2)n(C)c(=O)n3C)c1 [Example 202, N-(6-(3-((6-aminohexyl)oxy)-5-(2,2,2-trifluoroethoxy)phenoxy)-1,3-dimethyl-2-oxo-2,3-dihydro-1H-benzo[d]imidazol-5-yl)-1-methyl-1H-imidazole-4-sulfonamide]"
9,10 to 100 nM,"COc1ccc(S(=O)(=O)Nc2cc3c(cc2Oc2cc(OCCCCCCN)cc(OCC(F)(F)F)c2)n(C)c(=O)n3C)cn1 [Example 203, N-(6-(3-((6-aminohexyl)oxy)-5-(2,2,2-trifluoroethoxy)phenoxy)-1,3-dimethyl-2-oxo-2,3-dihydro-1H-benzo[d]imidazol-5-yl)-6-methoxypyridine-3-sulfonamide]"
10,10 to 100 nM,"CCCOc1cc(OCCCCCCO)cc(Oc2cc3c(cc2NS(=O)(=O)c2ccc(OC)c(OC)c2)n(C)c(=O)n3C)c1 [Example 179, N-(6-(3-((6-hydroxyhexyl)oxy)-5-propoxyphenoxy)-1,3-dimethyl-2-oxo-2,3-dihydro-1H-benzo[d]imidazol-5-yl)-3,4-dimethoxybenzenesulfonamide]"
11,10 to 100 nM,"CCCOc1cc(OCCCCCCN)cc(Oc2cc3c(cc2NS(=O)(=O)c2cccc(C(=O)OC)c2)n(C)c(=O)n3C)c1 [Example 191, methyl 3-(N-(6-(3-((6-aminohexyl)oxy)-5-propoxyphenoxy)-1,3-dimethyl-2-oxo-2,3-dihydro-1H-benzo[d]imidazol-5-yl)sulfamoyl)benzoate]"
12,> 1000 nM,"CNCC(C)(O)COc1cccc(Oc2cc3c(cc2NS(=O)(=O)c2cn(C)cn2)n(C)c(=O)n3C)c1 (stereo not shown) [Example 235, N-(6-{3-[2-hydroxy-2-methyl-3-(methylamino)propoxy]phenoxy}-1,3-dimethyl-2-oxo-2,3-dihydro-1H-1,3-benzodiazol-5-yl)-1-methyl-1H-imidazole-4-sulfonamide]"
13,100 to 1000 nM,"CCCOc1cc(OCCCOC)cc(Oc2cc3c(cc2NS(=O)(=O)c2cccc4c2OCCO4)n(C)c(=O)n3C)c1 [Example 175, N-(6-(3-(3-methoxypropoxy)-5-propoxyphenoxy)-1,3-dimethyl-2-oxo-2,3-dihydro-1H-benzo[d]imidazol-5-yl)-2,3-dihydrobenzo[b][1,4]dioxine-5-sulfonamide]"
14,100 to 1000 nM,"Cn1cnc(S(=O)(=O)Nc2cc3c(cc2Oc2cccc(OCCCC#N)c2)n(C)c(=O)n3C)c1 [Example 97, N-(6-(3-(3-cyanopropoxy)phenoxy)-1,3-dimethyl-2-oxo-2,3-dihydro-1H-benzo[d]imidazol-5-yl)-1-methyl-1H-imidazole-4-sulfonamide]"
